# Experimental data: patent publication US20230114728A1 (Venatorx Pharmaceuticals, Inc., priority 2019, published 2023)
# Like-named read-outs stand apart in the source and are kept apart here.
# Assays:
# P. aeruginosa PBP3 = biological target: T1, P. aeruginosa PBP3 (Pseudomonas aeruginosa, UniProt G3XD46); assay: Bocillin-FL fluorescence polarization competition binding assay, P. aeruginosa PBP3; settings: fluorescence polarization competition binding assay using Bocillin-FL
# T1 construct: made in house
# T1 sequence (G3XD46 whole entry): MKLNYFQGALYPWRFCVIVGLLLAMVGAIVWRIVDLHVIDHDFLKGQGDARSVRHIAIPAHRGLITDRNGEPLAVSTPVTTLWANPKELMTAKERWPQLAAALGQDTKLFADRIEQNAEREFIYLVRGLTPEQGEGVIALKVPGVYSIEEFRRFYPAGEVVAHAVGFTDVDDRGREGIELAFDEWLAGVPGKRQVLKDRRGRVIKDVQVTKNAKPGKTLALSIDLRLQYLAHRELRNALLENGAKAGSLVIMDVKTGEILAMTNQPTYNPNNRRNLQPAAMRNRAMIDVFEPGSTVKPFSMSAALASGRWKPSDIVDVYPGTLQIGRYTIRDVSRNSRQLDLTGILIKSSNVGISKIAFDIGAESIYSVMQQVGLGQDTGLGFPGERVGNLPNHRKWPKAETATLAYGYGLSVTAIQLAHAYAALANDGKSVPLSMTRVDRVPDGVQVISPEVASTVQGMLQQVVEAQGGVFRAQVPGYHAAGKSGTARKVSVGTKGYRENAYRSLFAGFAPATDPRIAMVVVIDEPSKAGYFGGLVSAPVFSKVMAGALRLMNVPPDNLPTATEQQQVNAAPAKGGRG
# Text: (§1) Example I: Experimental Method for Penicillin-Binding Protein Binding Assays with Bocillin-FL Via Fluorescence Polarization
# (§2) To determine the ability of boronic acid-based test PBP inhibitors to bind Penicillin Binding Proteins (PBPs), Bocillin-FL (fluorescently-labeled penicillin V; ThermoFisher Scientific) was used in a fluorescence polarization (FP) competition binding assay to assess inhibitor binding to PBP2, PBP3 or PBP4 from Escherichia coli (K12), PBP3 from Pseudomonas aeruginosa (PA01), PBP1a, PBP2 and PBP3 from Acinetobacter baumannii (ATCC 19606), and PBP2 from Neiserria gonorrheae (FA19). PBPs were cloned and purified as described previously (E. coli PBPs, King, D. T, et al., ACS Infectious Diseases 2015, 1, 175-184; P. aeruginosa PBP3, Han et. al., PNAS 2010, 107 (51), 22002-22007; A. baumannii PBPs, Penwell et. al., Antimicrob. Agents Chemother. 2015, 59 (3), 1680-1689; N. gonorrhoeae PBP2, Singh et. al., J Biol. Chem. 2019, 294 (38), 14020-14032). To establish assay conditions for competition binding, enzyme titration/saturation binding experiments were initially performed. Bocillin-FL was prepared at 0.2 μM in a buffer comprised of 50 mM Hepes (pH 8.0), 300 mM NaCl and 5% (v/v) glycerol for reactions with E. coli, P. aeruginosa and N. gonorrhoeae PBPs, and 25 mM Tris (pH 8.0), 200 mM NaCl and 10% (v/v) glycerol and 0.005% (v/v) Tween 20 for reactions with A. baumannii PBPs. Saturation binding was performed by mixing 40 μl of PBP solutions ranging in concentrations from 0-24 μM with 40 μl of the 0.2 μM Bocillin-FL solution, in individual wells of a black 384-well microplate. FP was measured immediately upon mixing (Excitation, 490 nm; Emission, 520 nm; g-factor, 0.96), using a Cytation3 (BioTek) microplate reader and measured continuously for up to 120 minutes. […] The competition binding assay (80 μl final volume) was validated using beta-lactams and PBPs at final concentrations of: 1.5 μM, E. coli PBP3; 0.75 μM, P. aeruginosa PBP3; 1 μM A. baumannii PBP1a; 2.5 μM A. baumannii PBP2; 0.2 μM A. baumannii PBP3; and […] N. gonorrhoeae PBP2. Bocillin-FL was at 0.1 μM (0.05 μM with A. baumannii PBP1a) and beta-lactam concentrations ranged from 0-1000 μM. […] Bocillin-FL was added and the FP immediately measured for up to 60 minutes (90 minutes for E. coli PBP2). […] The beta-lactam potency was reported as the concentration of beta-lactam required to reduce the amount of PBP bound-Bocillin-FL by 50% (EC50). […] Binding assays for boronic acid PBP inhibitors were performed in an identical fashion for the respective PBPs
# A. baumannii ATCC 19606 = assay: Broth microdilution MIC in CAMHB; assay type: cell-based; settings: Acinetobacter baumannii, ATCC19606; MHB; read-out: Minimum Inhibitory Concentration, A. baumannii ATCC 19606
# Procedure: (§3) Example III: In Vitro Antibacterial Assays
# (§4) To determine the ability of test compounds to inhibit the growth of bacterial strains, classic cell based broth microdilution minimum inhibitory concentration (MIC) assays were employed. MIC assays are performed according to CLSI methods except where otherwise noted (CLSI, 2018 and CLSI, 2019). The reference type strain E. coli ATCC 25922; the wild-type parent strain E. coli AG100; the hyper-permeable E. coli 901C and E. coli D22; and the E. coli AG100A strain lacking the acrAB efflux pump encoding genes were used to determine the ability of the PBP inhibitors to penetrate the outer membrane of gram-negative bacteria and inhibit bacterial growth. […] The P. aeruginosa ATCC 27853 and A. baumannii ATCC 19606, along with the hyper-permeable P. aeruginosa ATCC 35151 and an engineered efflux pump-compromised strain of P. aeruginosa (ΔmexAB-oprM) were used to determine the ability of PBP inhibitors to penetrate the outer membrane of P. aeruginosa and A. baumannii and assess antibacterial activity against these important gram-negative organisms.
# (§5) Briefly, cryo-preserved bacterial cultures of challenge strains are streaked for isolation on appropriate agar medium, in this case cation-adjusted Mueller Hinton agar. Following incubation to allow growth of the colonies, plates are sealed with parafilm and stored refrigerated for up to two weeks. For preparation of assay inoculum and to ensure low variability, at least 5 colonies are picked from the agar plates with an inoculating loop and aseptically transferred to a culture tube containing 3 mL of cation-adjusted Mueller Hinton broth (CAMHB). The broth culture is grown for 3-5 hours at 37° C. with shaking at 200 rpm. Meanwhile, 2-fold serial dilutions of test compounds are conducted in a 96-well plate with a final volume of 75 μL per well at 2-fold the final desired concentration. After the dilution plates are set up the growing cultures are then diluted in a cuvette containing CAMHB and the optical density is measured at 600 nm. The inoculum is diluted such that 75 μL of this culture in CAMHB results in a starting bacterial concentration of 2-8×10^5 CFU/mL when added to the dilution plates. The plates are incubated for 16-20 hours for Enterobacteriaceae and Pseudomonas and 20-24 hours for Acinetobacter at 37° C. The MIC values are read visually as the lowest concentration well with no bacterial growth.
# E. coli 901C = assay: Broth microdilution MIC in CAMHB; assay type: cell-based; settings: Escherichia coli, MHB, read-out: Minimum Inhibitory Concentration, E. coli 901C
# Procedure: as §3, §4, §5
# E. coli AG100A = assay: Broth microdilution MIC in CAMHB; assay type: cell-based; settings: Escherichia coli, read-out: Minimum Inhibitory Concentration, E. coli AG100A
# Procedure: as §3, §4, §5
# E. coli AG100 = assay: Broth microdilution MIC in CAMHB; assay type: cell-based; settings: Escherichia coli, MHB, read-out: Minimum Inhibitory Concentration, E. coli AG100
# Procedure: as §3, §4, §5
# E. coli ATCC 25922 = assay: Broth microdilution MIC in CAMHB; assay type: cell-based
# Procedure: as §3, §4, §5
# E. coli D22 = assay: Broth microdilution MIC in CAMHB; assay type: cell-based; settings: Escherichia coli, MHB, read-out: Minimum Inhibitory Concentration, E. coli D22
# Procedure: as §3, §4, §5
# [1] = tested on: K. pneumoniae 848844 producing SHV-11 and KPC-2; assay: Broth microdilution MIC in CAMHB; assay type: cell-based; settings: Klebsiella pneumoniae, read-out: Minimum Inhibitory Concentration, K. pneumoniae 848844
# Procedure: as §3, §4, §5
# [2] = tested on: K. pneumoniae SI-117 producing VIM-1; assay: Broth microdilution MIC in CAMHB; assay type: cell-based; settings: Klebsiella pneumoniae, read-out: Minimum Inhibitory Concentration, K. pneumoniae SI-117
# Procedure: as §3, §4, §5
# [3] = tested on: K. pneumoniae UMM producing SHV-5 and KPC-2; assay: Broth microdilution MIC in CAMHB; assay type: cell-based; settings: Klebsiella pneumoniae, read-out: Minimum Inhibitory Concentration, K. pneumoniae UMM
# Procedure: as §3, §4, §5
# [4] = tested on: P. aeruginosa (ΔmexAB-oprM); assay: Broth microdilution MIC in CAMHB; assay type: cell-based; settings: Pseudomonas aeruginosa, read-out: Minimum Inhibitory Concentration, P. aeruginosa ΔmexAB-OprM
# Procedure: as §3, §4, §5
# P. aeruginosa ATCC 27853 = assay: Broth microdilution MIC in CAMHB; assay type: cell-based; settings: Pseudomonas aeruginosa, ATCC27853; MHB; read-out: Minimum Inhibitory Concentration, P. aeruginosa ATCC 27853
# Procedure: as §3, §4, §5
# P. aeruginosa ATCC 35151 = assay: Broth microdilution MIC in CAMHB; assay type: cell-based; settings: Pseudomonas aeruginosa, ATCC35151; MHB; hyper-permeable strain; read-out: Minimum Inhibitory Concentration, P. aeruginosa ATCC 35151
# Procedure: as §3, §4, §5
# E. coli K12 PBP3 = biological target: T2, E. coli K12 PBP3 (Escherichia coli, UniProt P0AD68); assay: biochemical; assay type: binding
# T2 construct: made in house
# T2 sequence (P0AD68 1-577): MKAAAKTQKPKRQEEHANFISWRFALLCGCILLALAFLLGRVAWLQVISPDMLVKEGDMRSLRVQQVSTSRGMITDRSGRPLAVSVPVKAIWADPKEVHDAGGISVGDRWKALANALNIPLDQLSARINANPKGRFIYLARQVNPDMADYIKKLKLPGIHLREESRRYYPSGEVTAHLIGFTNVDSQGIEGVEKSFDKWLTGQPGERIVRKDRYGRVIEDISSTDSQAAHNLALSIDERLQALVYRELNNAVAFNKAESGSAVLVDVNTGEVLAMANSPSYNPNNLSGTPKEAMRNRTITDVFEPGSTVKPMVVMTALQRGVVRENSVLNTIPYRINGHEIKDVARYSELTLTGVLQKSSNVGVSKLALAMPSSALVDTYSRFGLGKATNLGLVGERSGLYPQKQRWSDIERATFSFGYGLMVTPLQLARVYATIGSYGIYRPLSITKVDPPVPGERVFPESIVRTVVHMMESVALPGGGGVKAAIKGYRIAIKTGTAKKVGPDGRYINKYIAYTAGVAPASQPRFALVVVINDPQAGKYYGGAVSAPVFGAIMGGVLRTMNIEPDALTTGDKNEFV
# Text: as §1, §2
# [5] = wild-type parent strain E. coli AG100
# [6] = Escherichia coli, ATCC25922; MHB; E. coli ATCC 25922; read-out: Minimum Inhibitory Concentration, E. coli 25922
Compound,P. aeruginosa PBP3 Potency (P. aeruginosa PBP3),MIC (A. baumannii ATCC 19606),MIC (E. coli 901C; E. coli 901C (hyper-permeable)),MIC (E. coli AG100A),MIC (E. coli AG100; E. coli AG100 (wild-type parent)),"MIC (E. coli ATCC 25922; Escherichia coli, ATCC25922; E. coli ATCC 25922; MHB; read-out: Minimum Inhibitory Concentration, E. coli 25922)",MIC (E. coli D22; E. coli D22 (hyper-permeable)),MIC [1],MIC [2],MIC [3],MIC [4],MIC (P. aeruginosa ATCC 27853),MIC (P. aeruginosa ATCC 35151),MIC (E. coli 901C; hyper-permeable E. coli 901C),MIC (E. coli AG100; [5]),MIC (E. coli ATCC 25922; [6]),MIC (E. coli D22; hyper-permeable E. coli D22),EC50 (E. coli K12 PBP3)
"CCN1CCN(C(=O)N[C@H](C(=O)N[C@H]2Cc3cccc(C(=O)O)c3OB2O)c2ccc(C(=O)O)c(Cl)c2F)C(=O)C1=O (single isomer, unassigned) [Example 221]",C (C represents a potency between 10 and 30 μM),> 128 µg/mL,> 128 µg/mL,> 128 µg/mL,> 128 µg/mL,32 to 64 µg/mL,> 128 µg/mL,> 128 µg/mL,8 to 16 µg/mL,0.5 to 1 µg/mL,32 to 64 µg/mL,> 128 µg/mL,2 to 4 µg/mL,–,–,–,–,–
"CCN1CCN(C(=O)N[C@@H](C(=O)N[C@H]2Cc3cccc(C(=O)O)c3OB2O)c2ccc(C(=O)O)c(Cl)c2F)C(=O)C1=O (single isomer, unassigned) [Example 222]",D (D represents a potency <10 μM),> 128 µg/mL,–,> 128 µg/mL,–,–,–,> 128 µg/mL,2 to 4 µg/mL,< 0.25 µg/mL,32 to 64 µg/mL,> 128 µg/mL,0.5 to 1 µg/mL,> 128 µg/mL,> 128 µg/mL,32 to 64 µg/mL,> 128 µg/mL,–
"NCCN1CCCN(C(=O)N[C@H](C(=O)N[C@H]2Cc3cccc(C(=O)O)c3OB2O)c2c(F)cc(O)cc2F)C1=O (single isomer, unassigned) [Example 231]",–,> 128 µg/mL,–,> 128 µg/mL,–,–,–,> 128 µg/mL,> 128 µg/mL,32 to 64 µg/mL,> 128 µg/mL,> 128 µg/mL,8 to 16 µg/mL,> 128 µg/mL,> 128 µg/mL,> 128 µg/mL,> 128 µg/mL,30 to 500 µM
"NC1(CN2CCN(C(=O)N[C@@H](C(=O)N[C@H]3Cc4cccc(C(=O)O)c4OB3O)c3ccc(O)c(F)c3F)C(=O)C2=O)CC1 (single isomer, unassigned) [Example 236]",–,> 128 µg/mL,–,32 to 64 µg/mL,–,–,–,32 to 64 µg/mL,2 to 4 µg/mL,0.5 to 1 µg/mL,2 to 4 µg/mL,> 128 µg/mL,< 0.25 µg/mL,32 to 64 µg/mL,32 to 64 µg/mL,32 to 64 µg/mL,32 to 64 µg/mL,< 30 µM
"NC1(CN2CCN(C(=O)N[C@H](C(=O)N[C@H]3Cc4cccc(C(=O)O)c4OB3O)c3ccc(O)c(F)c3F)C(=O)C2=O)CC1 (single isomer, unassigned) [Example 237]",–,> 128 µg/mL,–,> 128 µg/mL,–,–,–,> 128 µg/mL,32 to 64 µg/mL,2 to 4 µg/mL,8 to 16 µg/mL,> 128 µg/mL,0.5 to 1 µg/mL,> 128 µg/mL,> 128 µg/mL,> 128 µg/mL,> 128 µg/mL,30 to 500 µM
"O=C(O)c1cccc2c1OB(O)[C@@H](NC(=O)C(NC(=O)N1CCN(CCF)C(=O)C1=O)c1ccc(O)c(F)c1F)C2 (stereo partly drawn) [Example 235, (3R)-3-(2-(2,3-difluoro-4-hydroxyphenyl)-2-(4-(2-fluoroethyl)-2,3-dioxopiperazine-1-carboxamido)acetamido)-2-hydroxy-3,4-dihydro-2H-benzo[e][1,2]oxaborinine-8-carboxylic acid]",–,> 128 µg/mL,–,32 to 64 µg/mL,–,–,–,32 to 64 µg/mL,2 to 4 µg/mL,< 0.25 µg/mL,8 to 16 µg/mL,> 128 µg/mL,0.5 to 1 µg/mL,32 to 64 µg/mL,32 to 64 µg/mL,8 to 16 µg/mL,32 to 64 µg/mL,< 30 µM
